# Patent publication US8946219B2, “Combination therapy with a compound acting as a platelet ADP receptor inhibitor” (Portola Pharmaceuticals, Inc., priority 2007, dated 2015)
# Experiments:
# [1] = test system: thrombosis on mouse mesenteric arteries; assay: Mouse mesenteric artery thrombosis model, 5% FeCl3 (Example 13, present tense); format: in vivo, C57B16J mice; details: for antithrombotic activity in the intravital microscopy thrombosis model in mice: other factor Xa inhibitors, expected
# Description: Thrombosis on mouse mesenteric arteries (shear rate 1000-1300 s^−1) is performed and recorded as previously described with minor modifications, as described in Andre, P. et al., Anticoagulants (thrombin inhibitors) and aspirin synergize with P2Y12 receptor antagonism in thrombosis. Circulation, 2003, 108(21):2697-703. Platelets are labeled in situ using rhodamine 6G (0.2 mg/mL) administered through the tail vein 10 mins before visualization of the arteries. Vessel-wall injury is triggered by a 1×1-mm filter paper saturated with a 5% FeCl3 solution. After 5 minutes, the filter paper is removed and mesenteric arteries rinsed with warmed saline (37° C.). Platelet vessel-wall interactions are recorded for 40 additional mins or until full occlusion occurs and persists for more than 40 seconds. C57B16J mice are orally gavaged with vehicle control, Compound A (7.5, 20, 60 mg/kg) or betrixaban (4, 40, 400 mg/kg) two hours prior to vascular injury. Thrombosis is analyzed in real time using Simple PCI software, as described in Andre, P. et al., P2Y12 regulates platelet adhesion/activation, thrombus growth, and thrombus stability in injured arteries. J Clin Invest, 2003, 112(3):398-406. The fluorescence intensity is recorded at a rate of 2 Hz for 40 minutes and plotted over time. Time to occlusion (cessation of blood flow) is analyzed.
# [2] = test system: thrombosis on mouse mesenteric arteries; assay: Mouse mesenteric artery thrombosis model, intravital microscopy, 10% FeCl3 (Example 14); format: in vivo, C57B16J mice
# Description: Thrombosis on mouse mesenteric arteries (shear rate 1000-1300 s^−1) was performed and recorded as previously described with minor modifications. (Andre, P., et al., Anticoagulants (thrombin inhibitors) and aspirin synergize with P2Y12 receptor antagonism in thrombosis. Circulation, 2003. 108(21): p. 2697-703.) Platelets were labeled in situ using rhodamine 6G (0.2 mg/mL) administered through the tail vein 10 min before visualization of the arteries. Vessel-wall injury was triggered by a 1×1-mm filter paper saturated with a 10% FeCl3 solution. After 5 minutes, the filter paper was removed and mesenteric arteries rinsed with warmed saline (37° C.). Platelet vessel-wall interactions were recorded for 40 additional min or until full occlusion occurred and persisted for more than 40 seconds. C57B16J mice were orally gavaged with vehicle control, compound A (0.83, 2.5, 7.5, 20, 60 mg/kg) or betrixaban (2, 4, 10 mg/kg) two hours prior to vascular injury. Thrombosis was analyzed in real time using Simple PCI software. (Andre, P., et al., P2Y12 regulates platelet adhesion/activation, thrombus growth, and thrombus stability in injured arteries. J Clin Invest, 2003. 112(3): p. 398-406.) The fluorescence intensity was recorded at a rate of 2 Hz for 40 minutes and plotted over time. Time to occlusion (cessation of blood flow) is analyzed.
# Plasma concentrations of Compound A and betrixaban were determined on blood draw collected 2 min post-occlusion or 42 min after start of vascular injury.
# [3] = test system: thrombin generation in platelet rich plasma; assay: Platelet-initiated thrombin generation assay (Example 5); format: cell-based, human
# Description: Whole blood from healthy volunteer donors was collected by venipuncture and drawn into 3.2% trisodium citrate (Vacutainer, Becton Dickinson) for anticoagulation. Platelet rich plasma was prepared by centrifugation and the platelet count was adjusted to 150,000/μL. In a 96 well plate, platelets were activated by addition of convulxin (200 ng/mL) and incubation at 37° C. for 3 mins. Subsequent to platelet activation, thrombin generation was initiated by addition of 23 pM tissue factor (Innovin, Dade Behring) and 15 mM calcium. Thrombin activity was monitored by cleavage of the specific fluorogenic substrate (Z-gly-gly-arg-AMC, Bachem) in a fluorescence plate reader.
# [4] = test system: ADP induced platelet aggregation in human platelet rich plasma; assay: ADP induced platelet aggregation; format: cell-based
# [5] = test system: whole human blood perfused over type III collagen (thrombus formation); assay: Real time perfusion chamber thrombosis assay (Example 3); format: cell-based; details: read-out: inhibition of thrombosis
# Source text: The real time perfusion chamber assay couples the features of animal thrombosis models that use intravital microscopy to those of perfusion chamber technology in order to produce an assay suited to monitoring drug activity in clinical trials. This assay perfuses whole blood through capillaries at arterial rates of shear, exposing the blood to thrombogenic type III collagen. Platelets are labeled with a fluorescent dye (rhodamine 6 G) prior to perfusion such that analysis of the thrombus deposition can be performed by measurement of fluorescence intensity inside the perfusion chamber. Quantification is performed by analysis of the thrombus height (fluorescence intensity (number of pixels)/total area (μm^2)).
# [6] = test system: platelet thrombus formation on collagen-coated capillary (type I collagen); assay: Perfusion assay, non-anticoagulated whole blood, type I collagen, 1000 s^−1 (Example 6); format: cell-based, human; details: Compound A alone at 10 μM
# Description: After perfusion the size of the platelet thrombus was measured by fluorescence.
# [7] = test system: thrombus formation under arterial shear conditions; assay: Perfusion assay, blood collected in bivalirudin, type III collagen, 1600 s^−1 (Example 8); format: cell-based; details: bivalirudin alone, 12 μg/mL
# Description: As an example of additive antithrombotic benefit achieved when Compound A was combined with a direct thrombin inhibitor, such as bivalirudin, in the following assay, blood was collected in 12 μg/mL bivalirudin (standard therapeutic concentration), incubated with various concentrations of Compound A (0.1, 1 or 10 μM) for 20 mins in the presence of rhodamine 6G (which fluorescently labels platelets), followed by perfusion through a glass capillary coated with collagen (type III) at a fixed shear rate (1600 s^−1). […] FIG. 7 illustrates the combined antithrombotic benefit achieved by the combination of Compound A and bivalirudin.
# [8] = betrixaban 10 mg/kg, oral gavage
molecule,measurement,setting,value
"COc1ccc(NC(=O)c2ccc(C(=N)N(C)C)cc2)c(C(=O)Nc2ccc(Cl)cn2)c1 [betrixaban, [2-({4-[(dimethylamino)iminomethyl]phenyl}carbonylamino)-5-methoxyphenyl]-N-(5-chloro(2-pyridyl))carboxamide]",non-effective doses,[1]; betrixaban,below 100 ng/mL
same,time for appearance of first thrombus,[2]; [8],significantly delayed
same,time to occlusion,[2]; [8],significantly delayed
same,effect in the thrombosis model,"[2]; betrixaban 2 and 4 mg/kg, oral gavage",non-effective
same,concentration adequate for equivalent inhibition of thrombin generation as a therapeutic anticoagulant (Pentasaccharide fondaparinux),[3],31.25 nM
CNc1cc2[nH]c(=O)n(-c3ccc(NC(=O)NS(=O)(=O)c4ccc(Cl)s4)cc3)c(=O)c2cc1F [Compound A],concentration capable of maximal inhibition of platelet aggregation,[4],10 µM
same,IC50,"[4]; Platelet, platelets derived from human donors, n=19, read-out: half maximal inhibition of ADP induced platelet aggregation",4.7 ± 5.1 µM
same,plasma concentration that did not prevent occlusion,"[2]; PK/PD, FIG. 13",below 1 μg/mL
same,plasma concentrations of non-effective doses,"[2]; PK/PD, FIG. 13",below 200 ng/mL
same,plasma levels that prevented vascular occlusion,"[2]; PK/PD, FIG. 13",> 1 µg/mL
same,inhibition at 1.1 µM,[5],23%
same,platelet thrombus size,[6],no significant effect
"O=C(NC[C@H]1CN(c2ccc(N3CCOCC3=O)cc2)C(=O)O1)c1ccc(Cl)s1 [rivaroxaban, (5S)-5-chloro-N-((2-oxo-3-(4-(3-oxomorpholino)phenyl)oxazolidin-5-yl)methyl)thiophene-2-carboxamide]",antithrombotic activity in the intravital microscopy thrombosis model in mice,[1],significant antithrombotic activity
bivalirudin,inhibition of the thrombotic process,[7],did not significantly inhibit the thrombotic process
"COc1ccc(-n2nc(C(N)=O)c3c2C(=O)N(c2ccc(N4CCCCC4=O)cc2)CC3)cc1 [apixaban, 1-(4-methoxyphenyl)-7-oxo-6-(4-(2-oxopiperidin-1-yl)phenyl)-3a,4,5,6,7,7a-hexahydro-1H-pyrazolo[3,4-c]pyridine-3-carboxamide]",antithrombotic activity in the intravital microscopy thrombosis model in mice,[1],significant antithrombotic activity
